Data: patent publication US7553837B2, “Phenylazole compounds production process and antioxidants” (Nippon Soda Co., Ltd., priority 2003, dated 2009)

Legend:
[1] = tested on: 66 kDa protein in the retina; assay: 66 kDa protein increase inhibitory action in retina of rats irradiated with UV-A; assay type: in vivo; settings: Wistar male rats, 10 mg/kg, p.o., UV-A irradiation, retina 48 hours after irradiation, N = 3
Procedure: An action for inhibition of an increase in 66 kDa protein in the retina of rats irradiated with ultraviolet light of the compounds of the present invention was evaluated. To Wistar male rats (7 to 9 weeks old), a solution or suspension prepared by dissolving or suspending each of test compounds in a 0.1N hydrochloric acid solution or a 1% poly oxy ethylene hydrogenated castor oil (NIKKOL HCO-60) solution was orally administered. After 30 minutes, right eye was irradiated with UV-A (12 mW/cm^2) using a UV spot light source for 30 minutes. Left eye was not irradiated (control). During irradiation with UV-A and 2 hours before and after irradiation, rats were bred under an atmosphere where room light is screened. 48 hours after irradiation, the retina was separated. In the same manner as in Example 21, a 5% homogenate solution was prepared. Regarding a change in retinal protein, SDS-polyacrylamide electrophoresis was carried out according to the process of Lammli (Nature, […], 680-685, 1970). […] Then, the specimen was decolored with ethanol:acetic acid:water (25:8:65) and the 66 kDa protein after migration was analyzed by a densitograph. The amount of the protein in the specimen was determined by a Lowry process.

[2] = tested on: lipid peroxidation activity in a rat brain homogenate; assay: In vitro lipid peroxidation inhibition (rat brain homogenate, thiobarbituric acid process); assay type: biochemical; settings: read-out: In vitro lipid peroxidation inhibition 50% inhibitory concentration (IC50 μM), 500 μM cysteine, 5 μM sulfuric acid monobasic iron, 100 mM KCl, 37° C. for 30 minutes
Procedure: An in vitro lipid peroxidation inhibition of the compounds of the present invention was evaluated by measuring a lipid peroxidation activity in a rat brain homogenate according to a process of Malvy, c., et al., Biochemical and Biophysical Research Communications, 1980, Vol. 95, p. 734-737. That is, a rat brain was extracted and a 5-fold amount of an aqueous phosphoric acid buffered saline solution (pH 7.4) (hereinafter abbreviated to PBS) was added to the brain under ice cooling, followed by homogenization using a Teflon homogenizer and further centrifugation at 10,000 g for 20 minutes to prepare a brain homogenate as a supernatant. To the brain homogenate thus prepared, 500 μM cysteine, 5 μM sulfuric acid monobasic iron and 100 mM KCl were added, followed by incubation at 37° C. for 30 minutes. Malondialdehyde produced by the […] of lipid peroxidation was measured by a thiobarbituric acid process.

[3] = tested on: lipid peroxidation in retina homogenate; assay: Retina migration properties: ex vivo retinal lipid peroxidation production inhibition; assay type: in vivo; settings: SD male rats, retina taken after 30 minutes
Procedure: Retina migration properties of the compounds of the present invention were evaluated. To SD male rats (one group: 3 rats, 6 weeks old), a solution or suspension prepared by dissolving or suspending each of the test compounds in a 0.1N hydrochloric acid solution or a 1% poly oxy ethylene hydrogenated castor oil (NIKKOL HCO-60) solution was orally administered. After 30 minutes, both eyes were extracted and the retina was separated under ice cooling. A 5% homogenate solution of the retina was prepared in a 0.1M tris-hydrochloric acid buffer (pH 7.4) under ice cooling using a polytron homogenizer for a trace amount (NS-310E: manufactured by Nichion Irika Kiki Co., Ltd.) and, after autoxidation at 37° C. for one hour, the amount of lipid peroxidation produced was determined by a thiobarbituric acid process (MASUGI et al., vitamin 51, 21-29, 1977). A 30% inhibitory dose (ID30) was determined from the inhibition ratio at each dose. As is apparent from the results, the compounds of the present invention have an ex vivo retinal lipid peroxidation production inhibitory action and is also excellent in retina migration properties.

[4] = tested on: abnormal behavior and fatality due to ferrous chloride; assay: In vivo antioxidative activity: ferrous chloride administration into spinal subarachnoid cavity of mice; parameters: species or system Slc:ICR male mice; settings: score after 60 minutes
Procedure: An in vivo antioxidative activity of the compounds of the present invention was evaluated from an abnormal behavior due to administration of ferrous chloride into spinal subarachnoid cavity of mice as well as an inhibitory effect of a fatality rate according to the process described in J. Med. Chem., 1997, Vol. 40, p. 559-573. Using Slc:ICR male mice (one group: 3 to 7 mice, 5 weeks old) (available from Nippon SLC Co., Ltd.), 5 μl of a 50 mM ferrous chloride physiological saline solution was administered to the spinal canal through the space between the fifth lumbar vertebrae and the sixth lumbar vertebrae. 20 to 60 minutes after administration of ferrous chloride, symptoms were observed and a score after 60 minutes was determined from symptoms shown in Table 32. […] As is apparent from the results, the compounds of the present invention have an in vivo antioxidation action.

In the case of `Cc1c(C)c2c(c(C)c1N)CC(C)(CN1CCN(c3cccc(-n4ccnc4)c3)CC1)O2` (centres unmarked) [Compound B-1-18], the “66 kDa protein ratio in retina of rats irradiated with ultraviolet light (right eye: irradiated/left eye: non-irradiated)” value [1] was 1.50, the IC50 [2] was 0.25 µM and the “Lipid peroxidation inhibition 30% inhibitory concentration (ID30, oral administration) in ex vivo retina” value [3] was 12 mg/kg. The “In vivo antioxidation action 50% inhibitory concentration (ID50), Intraperitoneal administration” value ([4]; intraperitoneal administration 30 minutes before ferrous chloride into spinal canal) was 4.7 mg/kg and the “In vivo antioxidation action 50% inhibitory concentration (ID50), Oral administration” value ([4]; oral administration 30 minutes before ferrous chloride into spinal canal) was 7.4 mg/kg.
